Here are results for 23 molecules from patent US10117873B2, “6-amino-purin-8-one compounds” (GlaxoSmithKline LLC, priority 2008, dated 2018).

What all share (format): cell-based
Experiment [1] relates to Interferon-α. Kind of experiment: Induction of Interferon-α using cryopreserved human PBMCs. To be noted: PBMC, 24 h incubation, normalized to 1 uM resiquimod, read-out: mean pEC50 for induction of Interferon-α (converted). The procedure:
Assay for the Induction of Interferon-α Using Cryopreserved Human Peripheral Blood Mononuclear Cells (PBMCs)
Compounds were dissolved in DMSO. Serial 2-fold dilutions with DMSO were prepared and 0.25 μl dispensed into 384-well clear Greiner polypropylene plates.
Blood samples of up to 200 ml were obtained from healthy human donors. Whole blood in 25 ml volumes was overlaid onto 15 ml Ficoll® gradients in Leucosep® tubes, and centrifuged at 1000 g for 20 min. Cells in the band at the plasma/Histopaque® interface were carefully removed and washed twice with PBS (centrifuged at 400 g for 5 min to harvest). The final pellet was resuspended in freezing medium (90% Heat-inactivated serum, 10% DMSO) to a cell concentration of 4×10^7 cells/ml. The resuspended cells were then cryopreserved (frozen) using a rate controlled freezer, and stored at −140° C. for up to 4 months.
Immediately prior to assay, vials of cryopreserved (frozen) PBMCs were thawed rapidly in a water bath at 37° C. A 1:10 dilution of the cells in trypan blue was prepared and counted. The PBMCs were then diluted in growth media [RPMI 1640 containing 10% fetal calf serum (invitrogen), Penicillin+[…] (Gibco cat. #25030-024, 1:50), L-Glutamine 2 mM, and 1000 units/ml recombinant human IFN-gamma (Preprotech catalogue #300-02)] to a density of 1×10^6 cells/ml, and 50 ul/well dispensed to 384-well clear Greiner polypropylene plates containing 0.25 μl DMSO or test compound in 0.25 μl DMSO. […] Plates were incubated for 24 h at 37° C. in 5% CO2.
A multi-isoform immunoassay was used to quantify IFN-α in PBMC supernatants. Rabbit polyclonal antibody against human IFN-α (catalogue number 31101, Stratech Scientific) was diluted 1:10000 in assay buffer (RPMI 1640 containing 10% fetal calf serum, Invitrogen) and 20 μl was added to each well of an MSD® (Meso-Scale® Discovery) single small-spot 384-well GAR (goat anti-rabbit antibody coated) plate.
The plate was incubated for 1 h at room temperature with vigorous shaking. Following three washes with PBS, 20 μl of cell supernatant were added to each well of the plate. The plate was then incubated for 1 h at room temperature with vigorous shaking. A pair of monoclonal antibodies to IFN-α (catalogue numbers 21100 and 21112, Stratech Scientific) were labelled with sulfo-TAG (MSD®), diluted 1:1000 in assay buffer and 20 μl added to each well of the plate. The plate was further incubated for 1 h at room temperature with vigorous shaking. Following three washes with PBS, 30 μl of ×2 T buffer (MSD®) was added to each well and the plate was read on an MSD® Sector 6000 plate reader.
Data were normalized to internal plate controls of 1 uM resiquimod (n=16) and DMSO (n=16). pEC50 values were derived by 4-parameter curve fit with IRLS in ActivityBase, from 11-point, two-fold serial dilution of test compounds.

Experiment [2] concerns IFN-α. Description: Induction of Interferon-α using fresh human PBMCs. Conditions: PBMC, 24 hr incubation, relative to 2 μM resiquimod control, read-out: mean pEC50 for induction of IFN-α (converted). The procedure: (§1) Assay for the Induction of Interferon-α and TNF-α Using Fresh Human Peripheral Blood Mononuclear Cells (PBMCs)
(§2) Compounds were dissolved and serially diluted in DMSO to give 100× the required concentration range using a Biomek® 2000. 1 ul of test compound was transferred into 96-well tissue culture plates using a Biomek® FX. Each compound was assayed in duplicate for each donor. Each plate contained a dilution series of the TLR7/8 agonist resiquimod as standard and Column 11 contained 1 μl of 200 μM resiquimod (giving a 2 μM final concentration, used to define the approximate maximal response to resiquimod).
(§3) Blood samples from two human donors were collected into sodium heparin (10 U/ml). 25 ml volumes of whole blood were overlaid onto 15 mls Histopaque® in LEUCOSEP™ tubes which were centrifuged at 800 g for 20 min and the band at the plasma/histopaque interface carefully removed. The collected cells were centrifuged at 2500 rpm for 10 min and the pellet resuspended in 10 ml of media (RPMI 1640 (Low endotoxin) supplemented with 10% v/v foetal calf serum (FCS, low endotoxin) 100 U/ml penicillin G, 100 μg/ml streptomycin, 10 mM L-glutamine and 1× non-essential amino acids). A 1:20 dilution of the cells was prepared using trypan blue & the cells counted using a haemocytometer. The PBMCs were diluted to give a final concentration of 2×10^6/ml and 100 ul of this cells suspension was added to wells containing 1 μl of diluted test compound.
(§4) The cell preparations were incubated for 24 hr (37° C., 95% air, 5% CO2) after which a sample of the supernatant was removed using the Biomek® FX and assayed for both IFN-α and TNF-α using the MSD® (Mesoscale Discovery) electrochemiluminescence assay platform. The IFN-α assay was carried out similarly to that described above. The TNF-α assay was carried out as per kit instructions (Cat No K111BHB).
(§5) Cytokine released was expressed as a percentage of the 2 μM resiquimod control (column 11). This percentage was plotted against compound concentration and the pEC50 for the response determined by non-linear least squares curve fitting. For the IFN-α responses generally a 4 parameter logistic model was selected. For the TNF responses where a clear maximum response was obtained (i.e. a well defined plateau in the response was observed) then a 4 parameter model was generally used. If the upper asymptote of the curve wasn't well defined then the curve fitting was generally constrained to a maximal response of 100% (i.e. to the response to 2 μM resiquimod) or to the response of the highest concentration tested if this was greater than the resiquimod response. Some curves were bell shaped for one or both cytokines and the cytokine data on the down slope of the bell shaped response (i.e. concentrations above those giving the maximal response) were generally excluded from the fit, usually with the exception of the concentration immediately above the peak response. Curve fitting thus concentrated on the up slope of the dose response curve.

For experiment [3], the system named is TNF-α. Description: Induction of TNF-α using fresh human PBMCs. Conditions: PBMC, 24 hr incubation, relative to 2 μM resiquimod control, read-out: mean pEC50 for induction of TNF-α (converted). How it is done: as §1, §2, §3, §4, §5

Regarding `CCCCOc1nc(N)c2[nH]c(=O)n(CCCN3CCCCCC3)c2n1` [Example 3, 6-Amino-2-(butyloxy)-9-[3-(hexahydro-1H-azepin-1-yl)propyl]-7,9-dihydro-8H-purin-8-one], the EC50 in experiment [1] is under 3.16 µM.
Same read-out and setting: as for `CCCC[C@H](C)Oc1nc(N)c2[nH]c(=O)n(CCCCN3CCCCC3)c2n1` [Example 25, 6-Amino-2-{[(1S)-1-methylpentyl]oxy}-9-[4-(1-piperidinyl)butyl]-7,9-dihydro-8H-purin-8-one], the figure is under 3.16 µM.
Take `CCC[C@H](C)Nc1nc(N)c2[nH]c(=O)n(CCCCN3CCCCC3)c2n1` [Example 31, 6-Amino-2-{[(1S)-1-methylbutyl]amino}-9-[4-(1-piperidinyl)butyl]-7,9-dihydro-8H-purin-8-one]: the EC50 in experiment [1] is under 3.16 µM.
`CCCCOc1nc(N)c2[nH]c(=O)n(CCCCN3CCCC3)c2n1` [Example 5, 6-Amino-2-(butyloxy)-9-[4-(1-pyrrolidinyl)butyl]-7,9-dihydro-8H-purin-8-one]: the EC50 in experiment [1] is under 3.16 µM; in experiment [2] it was under 0.0316 µM; in experiment [3], over 3.16 µM.
`CCCCOc1nc(N)c2[nH]c(=O)n(CCCN3CCC3)c2n1` [Example 1, 6-Amino-9-[3-(1-azetidinyl)propyl]-2-(butyloxy)-7,9-dihydro-8H-purin-8-one]: the EC50 in experiment [1] was under 3.16 µM.
With `CCCCOc1nc(N)c2[nH]c(=O)n(CCCCCN3CCC3)c2n1` [Example 8, 6-Amino-9-[5-(1-azetidinyl)pentyl]-2-(butyloxy)-7,9-dihydro-8H-purin-8-one], the EC50 in experiment [1] was under 3.16 µM.
For the molecule `CCCCOc1nc(N)c2[nH]c(=O)n(CCCCCCN3CCCCC3)c2n1` [Example 14, 6-Amino-2-(butyloxy)-9-[6-(1-piperidinyl)hexyl]-7,9-dihydro-8H-purin-8-one], the EC50 is under 3.16 µM in experiment [1], at most 0.01 µM in experiment [2] and over 1 µM in experiment [3].
For the molecule `CCCCOc1nc(N)c2[nH]c(=O)n(CCCCN3CCC3)c2n1` [Example 4, 6-Amino-9-[4-(1-azetidinyl)butyl]-2-(butyloxy)-7,9-dihydro-8H-purin-8-one], the EC50 in experiment [1] is under 3.16 µM.
As to `CCCCOc1nc(N)c2[nH]c(=O)n(CCCCCN3CCCC3)c2n1` [Example 9, 6-Amino-2-(butyloxy)-9-[5-(1-pyrrolidinyl)pentyl]-7,9-dihydro-8H-purin-8-one], the EC50 is under 3.16 µM in experiment [1], under 0.0316 µM in experiment [2] and over 3.16 µM in experiment [3].
For the molecule `CC[C@H](C)Oc1nc(N)c2[nH]c(=O)n(CCCCN3CCCCC3)c2n1` [Example 24, 6-Amino-2-{[(1S)-1-methylpropyl]oxy}-9-[4-(1-piperidinyl)butyl]-7,9-dihydro-8H-purin-8-one], the EC50 in experiment [1] is under 3.16 µM.
In the case of `CCCCOc1nc(N)c2[nH]c(=O)n(CCCCN3CCCCCC3)c2n1` [Example 7, 6-Amino-2-(butyloxy)-9-[4-(hexahydro-1H-azepin-1-yl)butyl]-7,9-dihydro-8H-purin-8-one], the EC50 in experiment [1] is under 3.16 µM; in experiment [2], at most 0.01 µM; in experiment [3], over 1 µM.
As for `CCCCNc1nc(N)c2[nH]c(=O)n(CCCN3CCCCC3)c2n1` [Example 16, 6-Amino-2-(butylamino)-9-[3-(1-piperidinyl)propyl]-7,9-dihydro-8H-purin-8-one], the EC50 in experiment [1] was under 3.16 µM.
As for `Nc1nc(OC2CCCC2)nc2c1[nH]c(=O)n2CCCCN1CCCCC1` [Example 28, 6-Amino-2-(cyclopentyloxy)-9-[4-(1-piperidinyl)butyl]-7,9-dihydro-8H-purin-8-one], the EC50 in experiment [1] was under 3.16 µM.
On the same count and under the same terms, as for `CCCCNc1nc(N)c2[nH]c(=O)n(CCCCCN3CCCCCC3)c2n1` [Example 19, 6-Amino-2-(butylamino)-9-[5-(hexahydro-1H-azepin-1-yl)pentyl]-7,9-dihydro-8H-purin-8-one], the figure is under 3.16 µM; as for `CCCCNc1nc(N)c2[nH]c(=O)n(CCCCN3CCCCC3)c2n1` [Example 17, 6-Amino-2-(butylamino)-9-[4-(1-piperidinyl)butyl]-7,9-dihydro-8H-purin-8-one], under 3.16 µM; as for `CCCCOc1nc(N)c2[nH]c(=O)n(CCCN3CCCC3)c2n1` [Example 2, 6-Amino-2-(butyloxy)-9-[3-(1-pyrrolidinyl)propyl]-7,9-dihydro-8H-purin-8-one], under 3.16 µM.
As to `Nc1nc(OC2CCC2)nc2c1[nH]c(=O)n2CCCCN1CCCCC1` [Example 27, 6-Amino-2-(cyclobutyloxy)-9-[4-(1-piperidinyl)butyl]-7,9-dihydro-8H-purin-8-one], the EC50 in experiment [1] was under 3.16 µM.
Take `CCC[C@H](C)Oc1nc(N)c2[nH]c(=O)n(CCCN3CCCCC3)c2n1` [Example 32, 6-Amino-2-{[(1S)-1-methylbutyl]oxy}-9-[3-(1-piperidinyl)propyl]-7,9-dihydro-8H-purin-8-one]: the EC50 in experiment [1] is under 3.16 µM.
For `Nc1nc(OC2CCCCC2)nc2c1[nH]c(=O)n2CCCCN1CCCCC1` [Example 29, 6-Amino-2-(cyclohexyloxy)-9-[4-(1-piperidinyl)butyl]-7,9-dihydro-8H-purin-8-one], the EC50 in experiment [1] was under 3.16 µM.
In the case of `CC[C@H](C)Oc1nc(N)c2[nH]c(=O)n(CCCCCN3CCCCC3)c2n1` [Example 33, 6-Amino-2-{[(1S)-1-methylpropyl]oxy}-9-[5-(1-piperidinyl)pentyl]-7,9-dihydro-8H-purin-8-one], the EC50 in experiment [1] was under 3.16 µM.
With `CC(C)Oc1nc(N)c2[nH]c(=O)n(CCCCCN3CCCCC3)c2n1` [Example 26, 6-Amino-2-[(1-methylethyl)oxy]-9-[5-(1-piperidinyl)pentyl]-7,9-dihydro-8H-purin-8-one], the EC50 in experiment [1] was under 3.16 µM.
For the molecule `CCCCOc1nc(N)c2[nH]c(=O)n(CCCN3CCCCC3)c2n1` [Example 34, 6-Amino-2-(butyloxy)-9-[3-(1-piperidinyl)propyl]-7,9-dihydro-8H-purin-8-one], the EC50 in experiment [1] is under 3.16 µM.
As to `CCC[C@@H](C)Nc1nc(N)c2[nH]c(=O)n(CCCCN3CCCCC3)c2n1` [Example 30, 6-Amino-2-{[(1R)-1-methylbutyl]amino}-9-[4-(1-piperidinyl)butyl]-7,9-dihydro-8H-purin-8-one], the EC50 in experiment [1] was under 3.16 µM.
